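These data come from cells grown in 96-well plates and exposed to compound for 48 hours at five concentrations. GI50 is the concentration that inhibits growth by half.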 Active and inactive are the calls of the source. Cut-off read from the data, not from the text of the source: active = GI50 up to about 1.1 µM and inactive = higher. Where a SMILES comes first, the peptide text is derived from it. [ ]: non-standard residue; d: D form. The star is where a group is joined. ξ: configuration not given here. NMeF = CN[CH](Cc1ccccc1)C(=O)O; ξNMe2Val = CC(C)C(C(=O)*)N(C)C; NMeV = CN[CH](C(=O)O)C(C)C; OtBu = CC(C)(C)O*
Tests used:
Test in all cases: NCI-60 cell line screen, 48 h
A498 = test system: A498
CAKI-1 = test system: CAKI-1
HCT-15 = test system: HCT-15
HL-60 = test system: HL-60
HOP-62 = test system: HOP-62
K562 = test system: K562
KM12 = test system: KM12
LOX IMVI = test system: LOX IMVI
MOLT-4 = test system: MOLT-4
NCI-H23 = test system: NCI-H23
OVCAR-5 = test system: OVCAR-5
RPMI-8226 = test system: RPMI-8226
SK-MEL-28 = test system: SK-MEL-28
SNB-19 = test system: SNB-19
UACC-257 = test system: UACC-257
UO-31 = test system: UO-31

| SMILES | GI50 (A498) | GI50 (CAKI-1) | GI50 (HCT-15) [µM] | GI50 (HL-60) | GI50 (HOP-62) | GI50 (K562) | GI50 (KM12) | GI50 (LOX IMVI) | GI50 (MOLT-4) | GI50 (NCI-H23) | GI50 (OVCAR-5) | GI50 (RPMI-8226) | GI50 (SK-MEL-28) | GI50 (SNB-19) | GI50 (UACC-257) | GI50 (UO-31) |
| --- | --- | --- | --- | --- | --- | --- | --- | --- | --- | --- | --- | --- | --- | --- | --- | --- |
| CCOC(=O)C1(C(=O)OCC)CC=C(C)CC12C(=O)Nc1ccccc12 (configuration not stated) | > 100 µM (inactive) | > 100 µM (inactive) | > 100 | > 100 µM (inactive) | > 100 µM (inactive) | > 100 µM (inactive) | > 100 µM (inactive) | > 100 µM (inactive) | > 100 µM (inactive) | > 100 µM (inactive) | > 100 µM (inactive) | > 100 µM (inactive) | > 100 µM (inactive) | > 100 µM (inactive) |  |  |
| C[C@]12CC(C=O)C(=O)C(O)=C1CC[C@@H]1C2CC[C@@]2(C)C1CC[C@]2(C)O (some centres not stated) | 22.1 µM (inactive) |  | 23 | 15.8 µM (inactive) | 22.1 µM (inactive) | 25.9 µM (inactive) | 25.5 µM (inactive) | 11.5 µM (inactive) | 22.3 µM (inactive) | 21.7 µM (inactive) | 16.5 µM (inactive) | 16.6 µM (inactive) | 25.8 µM (inactive) | 25.2 µM (inactive) | 24.2 µM (inactive) | 21.3 µM (inactive) |
| COC(=O)C12C3C4C1C1C2C3C41I (configuration not stated) | > 100 µM (inactive) | > 100 µM (inactive) | > 100 | > 100 µM (inactive) | > 100 µM (inactive) | > 100 µM (inactive) |  |  | > 100 µM (inactive) | > 100 µM (inactive) | > 100 µM (inactive) | > 100 µM (inactive) | > 100 µM (inactive) | > 100 µM (inactive) | > 100 µM (inactive) | > 100 µM (inactive) |
| NC(=O)N/N=C(\CC1OC(=O)c2ccccc21)c1ccc([N+](=O)[O-])cc1 (configuration not stated) | 82 µM (inactive) | 23.6 µM (inactive) | 24.5 | 26.3 µM (inactive) | 22.7 µM (inactive) | > 10 µM (inactive) | 32.5 µM (inactive) | 17 µM (inactive) | 27.7 µM (inactive) |  |  | 31.3 µM (inactive) |  | 20.7 µM (inactive) | 67.3 µM (inactive) | 76.6 µM (inactive) |
| CC1=CC2CCC1(C)C/C2=C(/C)OC=O (configuration not stated) |  | > 100 µM (inactive) | > 100 | > 100 µM (inactive) | > 100 µM (inactive) | > 100 µM (inactive) | > 100 µM (inactive) | > 100 µM (inactive) | > 100 µM (inactive) | > 100 µM (inactive) | > 100 µM (inactive) | > 100 µM (inactive) | > 100 µM (inactive) | > 100 µM (inactive) | > 100 µM (inactive) | > 100 µM (inactive) |
| CNC(=O)NCCN1N=C(C)/C(=C\c2ccccc2)CC1=O | > 100 µM (inactive) | > 100 µM (inactive) |  | > 100 µM (inactive) | > 100 µM (inactive) | > 100 µM (inactive) | > 100 µM (inactive) | > 100 µM (inactive) | > 100 µM (inactive) | > 100 µM (inactive) | > 100 µM (inactive) | > 100 µM (inactive) | > 100 µM (inactive) | > 100 µM (inactive) | > 100 µM (inactive) | > 100 µM (inactive) |
| C1CCC(N=C2N(C3CCCCC3)C(=NC3CCCCC3)N2C2CCCCC2)CC1 | > 10 µM (inactive) |  | > 100 | > 100 µM (inactive) | > 100 µM (inactive) | > 100 µM (inactive) | > 100 µM (inactive) | > 100 µM (inactive) | > 100 µM (inactive) | > 100 µM (inactive) | > 100 µM (inactive) | > 100 µM (inactive) | > 100 µM (inactive) | > 100 µM (inactive) | > 100 µM (inactive) | > 100 µM (inactive) |
| CCn1c(=O)c2ccccc2n2c(=O)c3cc4ccccc4cc3nc12 | > 100 µM (inactive) | > 100 µM (inactive) | > 100 | 91.8 µM (inactive) | 96.8 µM (inactive) | > 100 µM (inactive) | > 100 µM (inactive) | > 100 µM (inactive) | > 100 µM (inactive) | > 100 µM (inactive) | > 100 µM (inactive) | > 100 µM (inactive) |  | 52.1 µM (inactive) | > 100 µM (inactive) | > 100 µM (inactive) |
| O=c1c2ccccc2nc(-c2ccccc2)n1NCC1(O)OCC(O)C(O)C1O (configuration not stated) | > 100 µM (inactive) | 47.3 µM (inactive) | > 100 | 33 µM (inactive) | > 100 µM (inactive) | > 100 µM (inactive) | > 100 µM (inactive) |  | 14 µM (inactive) | > 100 µM (inactive) | > 100 µM (inactive) | 52.7 µM (inactive) | > 100 µM (inactive) | > 100 µM (inactive) | > 100 µM (inactive) | > 100 µM (inactive) |
| Cc1nc(N)nc(CCC(=O)Nc2cccc(C(F)(F)F)c2)c1-c1ccc(Cl)cc1 | > 100 µM (inactive) | > 100 µM (inactive) | > 100 | > 100 µM (inactive) | > 100 µM (inactive) | > 100 µM (inactive) | > 100 µM (inactive) |  | > 100 µM (inactive) | > 100 µM (inactive) | > 100 µM (inactive) | > 100 µM (inactive) | > 100 µM (inactive) | > 100 µM (inactive) | > 100 µM (inactive) | > 100 µM (inactive) |
| CN(C)/C=N\c1ccn(CCO)c(=O)n1 | > 100 µM (inactive) |  | > 100 | > 100 µM (inactive) | > 100 µM (inactive) | > 100 µM (inactive) | > 100 µM (inactive) | > 100 µM (inactive) | > 100 µM (inactive) | > 100 µM (inactive) | > 100 µM (inactive) |  | > 100 µM (inactive) | > 100 µM (inactive) | > 100 µM (inactive) | > 100 µM (inactive) |
| COC(=O)C1Cc2c(n(Cc3ccccc3)c3ccccc23)C(CCC(=O)O)N1C(C)C (configuration not stated) | > 100 µM (inactive) | > 100 µM (inactive) | > 100 | > 100 µM (inactive) |  | > 100 µM (inactive) | > 100 µM (inactive) | > 100 µM (inactive) | > 100 µM (inactive) | > 100 µM (inactive) | > 100 µM (inactive) |  | > 100 µM (inactive) | > 100 µM (inactive) | > 100 µM (inactive) | > 100 µM (inactive) |
| Cc1ccc(S(=O)(=O)N2CCCCC2CCO)cc1 (configuration not stated) | > 100 µM (inactive) | > 100 µM (inactive) | > 100 | > 100 µM (inactive) | > 100 µM (inactive) | > 100 µM (inactive) | > 100 µM (inactive) |  | > 100 µM (inactive) | > 100 µM (inactive) | > 100 µM (inactive) | > 100 µM (inactive) |  | > 100 µM (inactive) | > 100 µM (inactive) | > 100 µM (inactive) |
| O=C(Nc1c(O)[nH]c(=S)[nH]c1=O)c1ccc2ccccc2n1 | > 100 µM (inactive) | > 100 µM (inactive) | > 100 | > 100 µM (inactive) | > 100 µM (inactive) | > 100 µM (inactive) |  | > 100 µM (inactive) | > 100 µM (inactive) | > 100 µM (inactive) |  | > 100 µM (inactive) | > 100 µM (inactive) | > 100 µM (inactive) | > 100 µM (inactive) | > 100 µM (inactive) |
| CCC(Oc1ccc(OC)c2c1C(=O)CCC2)C(=O)O (configuration not stated) | > 100 µM (inactive) |  | > 100 | > 100 µM (inactive) | > 100 µM (inactive) | > 100 µM (inactive) | > 100 µM (inactive) | > 100 µM (inactive) | > 100 µM (inactive) | > 100 µM (inactive) | > 100 µM (inactive) | > 100 µM (inactive) | > 100 µM (inactive) | > 100 µM (inactive) | > 100 µM (inactive) | > 100 µM (inactive) |
| NCCCSCC(=O)O |  | > 100 µM (inactive) | > 100 |  |  | > 100 µM (inactive) | > 100 µM (inactive) |  | > 100 µM (inactive) | > 100 µM (inactive) | > 100 µM (inactive) | > 100 µM (inactive) | > 100 µM (inactive) | > 100 µM (inactive) | > 100 µM (inactive) | > 100 µM (inactive) |
| O=C1C2[C@@H](C(=O)N1c1ccc(Br)cc1)C13C(=CC2([N+](=O)[O-])[C@@H]2C(=O)N(c4ccc(Br)cc4)C(=O)[C@@H]21)c1ccccc1N3c1ccccc1 (some centres not stated) |  |  | > 100 | > 100 µM (inactive) |  | > 100 µM (inactive) | > 100 µM (inactive) | > 100 µM (inactive) | > 100 µM (inactive) | > 100 µM (inactive) | > 100 µM (inactive) | > 100 µM (inactive) | > 100 µM (inactive) | > 100 µM (inactive) | > 100 µM (inactive) | 18.9 µM (inactive) |
| CC[C@H]1CNC(=O)CC1CC(=O)OC (some centres not stated) | > 100 µM (inactive) | > 100 µM (inactive) | > 100 |  | > 100 µM (inactive) |  | > 100 µM (inactive) | > 100 µM (inactive) | > 100 µM (inactive) | > 100 µM (inactive) | > 100 µM (inactive) |  | > 100 µM (inactive) | > 100 µM (inactive) | > 100 µM (inactive) | > 100 µM (inactive) |
| CC(C)C(C(=O)N(C)C(Cc1ccccc1)C(=O)N(C)C(C(=O)N(C)C(C(=O)N1CCCC1C(=O)OC(C)(C)C)C(C)C)C(C)C)N(C)C (configuration not stated) (ξNMe2Val-[NMeF][NMeV][NMeV]P-OtBu; configuration not given here) |  |  | 51.6 | 37.2 µM (inactive) | 64.4 µM (inactive) | 31.6 µM (inactive) | 40.6 µM (inactive) | 22.9 µM (inactive) | 13.9 µM (inactive) | 94.6 µM (inactive) |  | 36.8 µM (inactive) |  | 58.3 µM (inactive) | 32.8 µM (inactive) | 86.7 µM (inactive) |
